The target of one assay is T1, Calf polymerase alpha (Bos taurus, UniProt A0AAA9TD94).
T1 construct: purchased Replizyme Ltd (Heslington, York, UK)
T1 sequence (A0AAA9TD94 1-1441): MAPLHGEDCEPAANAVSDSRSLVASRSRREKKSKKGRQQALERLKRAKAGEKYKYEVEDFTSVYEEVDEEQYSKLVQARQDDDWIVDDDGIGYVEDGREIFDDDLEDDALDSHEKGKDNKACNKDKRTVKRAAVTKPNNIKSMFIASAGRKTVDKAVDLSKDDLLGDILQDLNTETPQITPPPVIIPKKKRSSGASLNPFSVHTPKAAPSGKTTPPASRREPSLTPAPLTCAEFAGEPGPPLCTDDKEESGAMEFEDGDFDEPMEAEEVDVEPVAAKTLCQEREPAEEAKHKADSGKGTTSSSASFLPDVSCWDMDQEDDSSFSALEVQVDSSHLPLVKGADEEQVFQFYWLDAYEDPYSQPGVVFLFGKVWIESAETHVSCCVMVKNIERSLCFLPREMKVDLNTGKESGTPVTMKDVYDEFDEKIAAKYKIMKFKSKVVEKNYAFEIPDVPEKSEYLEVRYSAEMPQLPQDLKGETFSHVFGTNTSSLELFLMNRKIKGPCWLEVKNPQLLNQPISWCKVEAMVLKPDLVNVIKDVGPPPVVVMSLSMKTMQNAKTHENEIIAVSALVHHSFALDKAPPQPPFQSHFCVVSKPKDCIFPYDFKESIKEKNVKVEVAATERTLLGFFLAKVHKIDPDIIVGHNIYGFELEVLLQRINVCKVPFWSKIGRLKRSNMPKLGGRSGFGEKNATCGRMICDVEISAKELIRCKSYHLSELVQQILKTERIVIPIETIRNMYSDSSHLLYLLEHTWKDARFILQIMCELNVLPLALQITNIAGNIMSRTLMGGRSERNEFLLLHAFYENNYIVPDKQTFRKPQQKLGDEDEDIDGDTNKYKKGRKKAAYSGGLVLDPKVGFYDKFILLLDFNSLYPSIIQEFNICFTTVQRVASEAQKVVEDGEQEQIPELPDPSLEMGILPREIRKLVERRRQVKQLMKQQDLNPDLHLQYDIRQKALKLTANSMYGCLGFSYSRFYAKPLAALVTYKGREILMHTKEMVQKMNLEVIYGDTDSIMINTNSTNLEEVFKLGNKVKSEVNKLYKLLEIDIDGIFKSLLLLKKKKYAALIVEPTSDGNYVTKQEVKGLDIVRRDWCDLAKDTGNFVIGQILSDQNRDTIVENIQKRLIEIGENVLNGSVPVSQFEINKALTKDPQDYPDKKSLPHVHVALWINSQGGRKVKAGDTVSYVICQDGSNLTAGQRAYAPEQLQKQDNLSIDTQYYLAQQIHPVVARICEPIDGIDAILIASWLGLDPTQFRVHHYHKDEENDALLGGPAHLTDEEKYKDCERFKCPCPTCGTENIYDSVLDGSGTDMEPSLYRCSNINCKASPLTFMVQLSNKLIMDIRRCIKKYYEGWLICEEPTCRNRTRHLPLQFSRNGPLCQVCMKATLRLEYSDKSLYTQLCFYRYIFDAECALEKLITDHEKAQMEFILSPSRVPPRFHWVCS
The assay is described as follows: Calf polymerase alpha inhibition (Replizyme kit). The assay is classed as biochemical. The following applies: for inhibition at 10 µM: single point screening; for IC50: dose response. Here is the method: Calf polymerase alpha and human polymerase alpha investigations were performed with a kit available from Replizyme Ltd (Heslington, York, UK).

In the next assay the target is T2, human polymerase alpha (Homo sapiens, UniProt P09884).
T2 construct: purchased Replizyme Ltd (Heslington, York, UK)
T2 sequence (P09884 1-1462): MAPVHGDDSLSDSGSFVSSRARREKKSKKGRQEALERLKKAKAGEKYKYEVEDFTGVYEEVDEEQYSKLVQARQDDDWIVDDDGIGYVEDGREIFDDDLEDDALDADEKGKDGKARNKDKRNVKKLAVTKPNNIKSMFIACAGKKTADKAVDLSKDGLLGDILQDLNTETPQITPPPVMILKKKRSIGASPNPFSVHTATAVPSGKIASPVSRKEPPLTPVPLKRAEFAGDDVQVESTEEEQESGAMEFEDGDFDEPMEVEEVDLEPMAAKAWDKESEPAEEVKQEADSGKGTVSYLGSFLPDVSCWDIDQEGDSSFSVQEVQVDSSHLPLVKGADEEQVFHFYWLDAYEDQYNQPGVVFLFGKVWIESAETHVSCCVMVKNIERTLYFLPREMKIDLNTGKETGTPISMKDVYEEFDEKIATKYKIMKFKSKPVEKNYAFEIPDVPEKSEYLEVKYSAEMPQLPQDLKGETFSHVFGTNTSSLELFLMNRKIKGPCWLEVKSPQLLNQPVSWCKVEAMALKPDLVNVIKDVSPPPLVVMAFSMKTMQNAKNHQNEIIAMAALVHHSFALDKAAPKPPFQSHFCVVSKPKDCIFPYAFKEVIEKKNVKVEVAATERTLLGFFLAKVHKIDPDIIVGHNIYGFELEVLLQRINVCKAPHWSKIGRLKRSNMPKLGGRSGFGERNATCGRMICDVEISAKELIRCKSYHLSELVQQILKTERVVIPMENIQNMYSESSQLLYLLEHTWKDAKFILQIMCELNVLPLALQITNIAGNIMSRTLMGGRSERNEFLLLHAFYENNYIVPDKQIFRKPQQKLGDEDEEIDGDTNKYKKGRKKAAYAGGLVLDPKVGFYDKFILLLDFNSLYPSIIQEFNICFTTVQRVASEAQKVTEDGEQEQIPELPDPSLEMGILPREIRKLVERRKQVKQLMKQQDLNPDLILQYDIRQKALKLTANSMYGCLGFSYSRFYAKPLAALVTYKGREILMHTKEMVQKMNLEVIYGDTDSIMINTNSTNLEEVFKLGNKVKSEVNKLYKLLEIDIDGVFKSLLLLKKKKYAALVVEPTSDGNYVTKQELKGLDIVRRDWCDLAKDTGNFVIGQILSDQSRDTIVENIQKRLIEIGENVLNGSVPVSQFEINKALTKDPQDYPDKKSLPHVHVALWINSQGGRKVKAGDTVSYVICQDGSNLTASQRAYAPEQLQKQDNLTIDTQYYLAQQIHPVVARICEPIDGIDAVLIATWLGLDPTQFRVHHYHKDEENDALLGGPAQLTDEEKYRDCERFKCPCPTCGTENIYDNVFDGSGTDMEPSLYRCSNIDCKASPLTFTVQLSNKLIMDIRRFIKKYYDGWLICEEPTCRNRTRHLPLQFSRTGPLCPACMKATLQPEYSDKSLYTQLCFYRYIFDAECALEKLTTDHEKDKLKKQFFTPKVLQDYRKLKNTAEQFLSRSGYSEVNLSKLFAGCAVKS
Nature of the assay: Homotemplate enzymatic assay, polymerase alpha. Format: biochemical. The following applies: four concentrations, homotemplate format. Here is the method: To test for selectivity, an enzymatic assay of activity in human polymerase alpha and human polymerase gamma was performed using a homotemplate assay format (Replizyme Ltd., Heslington, York, UK). The IC50 was measured by testing four different concentrations of a selected compound as compared to an untreated control.

As a reminder, the inhibition is how much of the control response was suppressed. A higher inhibition goes with a response far below the control. A word on the IC50: it is the point on the concentration scale where inhibition reaches its midpoint. Read a high IC50 as a need for much substance.

`Cc1ccc(NC(=O)[C@@H](CCCCN)NC(=O)Nc2ccc3c(c2)Cc2ccccc2-3)cc1` [Compound 173, (R)-6-AMINO-2-[3-(9H-FLUOREN-2-YL)-UREIDO]-HEXANOIC ACID P-TOLYLAMIDE]: at Calf polymerase alpha, testing at 10 µM gave an inhibition of 99%. Further, the IC50 at human polymerase alpha was < 4 µM.
As for `CC(C)(C)c1ccc(NC(=O)[C@H](CCCCN)NC(=O)OCC2c3ccccc3-c3ccccc32)cc1` [Compound 105, (S)-[5-AMINO-1-(4-TERT-BUTYL-PHENYLCARBAMOYL)-PENTYL]-CARBAMIC ACID 9H-FLUOREN-9-YLMETHYL ESTER], the inhibition at 10 µM at Calf polymerase alpha was found to be 100%.
The compound `Cc1cc2cc(NC(=O)[C@H](CCCNC(=O)CN)NC(=O)Nc3ccc4c(c3)Cc3ccccc3-4)ccc2[nH]1` [Compound 297, (S)-5-(2-AMINO-ACETYLAMINO)-2-[3-(9H-FLUOREN-2-YL)-UREIDO]-PENTANOIC ACID (2-METHYL-1H-INDOL-5-YL)-AMIDE] displayed an inhibition at 10 µM against Calf polymerase alpha of 16.5%. Besides, the IC50 at Calf polymerase alpha was 26 µM; against human polymerase alpha it was < 4 µM.
For `Cc1ccc(NC(=O)[C@H](CCCCN)NC(=O)Nc2ccc(OCc3ccccc3)cc2)cc1` [Compound 2, (S)-6-AMINO-2-[3-(4-BENZYLOXY-PHENYL)-UREIDO]-HEXANOIC ACID P-TOLYLAMIDE], the IC50 is 13 µM against Calf polymerase alpha and < 4 µM at human polymerase alpha.
At Calf polymerase alpha, `COC(=O)c1ccc(COc2ccc(NC(=O)N[C@@H](CCCCN)C(=O)Nc3ccc(C)cc3)cc2)cc1` [Compound 199, (S)-4-{4-[3-(5-AMINO-1-P-TOLYLCARBAMOYL-PENTYL)-UREIDO]-PHENOXYMETHYL}-BENZOIC ACID METHYL ESTER] came in with an inhibition at 10 µM of 39.7% and a half-inhibitory concentration (IC50) of 7.9 µM. For the same compound, the IC50 against human polymerase alpha was ~4 µM.

The values are drawn from patent publication US20080171783A1, “COMPOSITIONS AND METHODS FOR TREATING HYPERPROLIFERATIVE DISEASE” (Migenix Inc., priority 2006, published 2008).
